Laboratory results as given in patent US20050119289A1 (priority 2002, published 2005).
Converted amounts (≈) assume the structure as drawn. Where two headings read alike, the source gives them in different places.

Key:
rA1 adenosine receptor = molecular target: T1, rA1 adenosine receptor (Rattus norvegicus, UniProt P25099); test: Binding affinity at rA1 adenosine receptors
T1 sequence (P25099 1-326): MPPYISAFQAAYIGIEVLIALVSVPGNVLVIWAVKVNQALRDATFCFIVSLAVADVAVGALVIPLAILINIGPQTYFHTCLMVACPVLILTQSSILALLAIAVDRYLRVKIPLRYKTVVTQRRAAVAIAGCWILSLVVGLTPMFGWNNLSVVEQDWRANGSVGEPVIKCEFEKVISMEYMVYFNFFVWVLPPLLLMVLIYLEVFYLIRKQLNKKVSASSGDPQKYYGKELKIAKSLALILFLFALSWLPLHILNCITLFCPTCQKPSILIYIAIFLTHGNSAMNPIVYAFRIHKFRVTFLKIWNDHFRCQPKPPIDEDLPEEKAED

rA2A adenosine receptor = rA2A adenosine receptor (Rattus norvegicus, UniProt P30543); test: Binding affinity at rA2A adenosine receptors
[1] = system: human colon carcinoma HT29 cell line; test: MTT growth inhibitory assay, HT29; format: cell-based; details: Homo sapiens, HT-29, HT29 cells, read-out: IC50 of anti-neoplastic agent used jointly with A3 antagonist
Source text: (§1) The cells are sub-cultured twice a week.

[2] = system: human pancreatic cancer Panc-1 cell line; test: MTT growth inhibitory assay, Panc-1; format: cell-based; details: PANC-1, Panc-1 cells, read-out: IC50 of anti-neoplastic agent used jointly with A3 antagonist
Protocol: (§5) For chemotherapeutic enhancement testing, the human melanoma A375, human lung carcinoma SKMES, colon carcinoma HT29, and pancreatic cancer Panc-1 cell lines were originally obtained from the ATCC (American Type Culture Collection) and have been maintained at PRC. […] The cells are cultured in a T25 Falcon Tissue Culture flask in a humidified incubator at 37° C. with 5% CO2-95% air. The cells are sub-cultured twice a week. The doubling times of A375, SKMES, HT29, and Panc-1 cultures are approximately 22, 46, 48, and 60 hr, respectively.
(§6) One of the growth inhibitory assays is the MTT assay. Cells (1000-1500 cells/well) are seeded in a 96-well micro culture plate in a total volume of 100 μl/well. After overnight incubation in a humidified incubator at 37° C. with 5% CO2-95% air, chemotherapeutic drug solutions diluted with culture medium at various concentrations are added in the amount of 100 μl to each well. The plates are placed in a humidified incubator at 37° C. with 5% CO2-95% air for 7-10 days. The plates are then centrifuged briefly and 100 μl of the growth medium is removed. Cell cultures are incubated with 50 μl of MTT [3-(4,5-dimethylthiazol-2-yl)-2,5-diphenyl-tetrazolium bromide] reagent (1 mg/ml in Dulbecco's phosphate-buffered saline) for 4 hr at 37° C. The resultant purple formazan precipitate is solubilized with 200 μl of 0.04 N HCl in isopropanol. Absorbance is measured at a wavelength of 595 nm and at a reference wavelength of 655 nm using a Bio-Rad Model 3550 Microplate Reader. Preferably, all tests are run in duplicate for each dose level.
(§7) The EZED50 computer program estimates the concentration of agent that inhibits cell growth by 50% as compared to the control cells. This is termed the IC50 and is determined by curve fitting test data using the following four logistic equation.
(§8) Inhibitory assay testing is also used to determine enhanced therapeutic effects from combining A3 receptor antagonists with other tumor inhibiting agents. The inhibitory cell growth assays are run with and without selected concentrations of A3 receptor antagonists. An enhanced therapeutic effect is present when the IC50 of the tumor inhibiting agent is lower with the A3 receptor antagonist.
(§9) Quantitatively, the enhancement factor (EF) is calculated by dividing the IC50 value of the tumor inhibiting agent for a tumor cell line by the IC50 value of the agent with A3 receptor antagonist for the same cell line: [formula]

[3] = system: human lung carcinoma SKMES cell line; test: MTT growth inhibitory assay, SKMES; format: cell-based; details: SKMES cells, read-out: IC50 of anti-neoplastic agent used jointly with A3 antagonist
Source text: as §1

[4] = system: human melanoma A375 cell line
Protocol: as §5, §6, §7, §8, §9

[5] = docetaxel administered at 100 mg/m^2; cited from earlier work
[6] = system: human melanoma A375 cell line; test: MTT growth inhibitory assay, A375
Protocol: as §5, §6, §7, §8, §9

A375 cells = test: Flow cytometry analysis of G2/M accumulation and sub-G1 apoptosis, A375; format: cell-based, human; details: for EC50: Homo sapiens, A-375
Protocol: (§2) A375 and NCTC2544 adherent cells were trypsinized, mixed with floating cells, washed with PBS and permeabilised in 70% (vol/vol) ethanol/PBS solution at 4° C. for at least 24 hours. Jurkat, HeL023 and PBMC cells were centrifuged for 10 minutes at 1000×g. The cell pellet was then resuspended and permeabilised in 70% (vol/vol) ethanol/PBS solution at 4° C. for at least 24 hours. The cells were washed with PBS and the DNA was stained with a PBS solution, containing 20 μg/ml of propidium iodide and 100 μg/ml of RNAse, at room temperature for 30 minutes. Cells were analysed by FACScan (Becton-Dickinson) and the content of DNA was evaluated by the Cell-LISYS program (Becton-Dickinson). Cell distribution among cell cycle phases and apoptotic cells was evaluated as previously described (Secchiero et al., 2001). Briefly, the cell cycle distribution is shown as the percentage of cells containing 2n (G1 phase), 4n (G2 and M phases), 4n>x>2n. DNA amount (S phase) judged by propidium iodide staining. The apoptotic population is the percentage of cells with DNA content lower than 2n.
Cell proliferation and apoptosis are quantified by flow cytometer analysis after propidium-iodide (PI) DNA staining. At 24 hours post-exposure, paclitaxel and vindesine induced a dose dependent cell accumulation into G2/M cell cycle phases and a parallel decrease of the G1 population.
(§3) EC50 values were obtained by analysing G2/M accumulation dose response curve. ECMAXvalues were obtained by analysing sub-G1 accumulation dose response curve. Paclitaxel values have units of ng/ml. Vindesine values have units of nM. nd: not done.

HeL023 cells = test: Flow cytometry analysis of G2/M accumulation and sub-G1 apoptosis, HeL023; format: cell-based, human; details: for EC50: Homo sapiens
Protocol: as §2
(§4) To verify the role of A3 receptor antagonists on paclitaxel and vindesine mediated alteration of cell proliferation and apoptosis, testing was performed with additional cell lines. […] Experimental conditions are similar to those for the A375 cell testing.
as §3

Jurkat cells = test: Flow cytometry analysis of G2/M accumulation and sub-G1 apoptosis, Jurkat; format: cell-based, human; details: for EC50: Homo sapiens
Protocol: as §2, §4, §3

NCTC2544 cells = test: Flow cytometry analysis of G2/M accumulation and sub-G1 apoptosis, NCTC 2544; format: cell-based, human; details: for EC50: Homo sapiens, NCTC-2544, NCTC 2544; for ECMAX (sub-G1 accumulation): NCTC 2544
Protocol: as §2, §4, §3

PBMC blasts = test: Flow cytometry analysis of G2/M accumulation, PBMC; format: cell-based; details: Homo sapiens, vindesine with MRE3008F20 10 μM
Protocol: For multi-drug resistance testing, A375 and NCTC2544 cells are grown adherently and maintained in DMEM and EMEM medium, respectively, containing 10% fetal calf serum, penicillin (100 U/ml), streptomycin (100 μg/ml), L-glutamine (2 mM) at 37° C. in 5% CO2/95% air. HeL023 and Jurkat were grown in RPMI-1640 medium, containing 10% fetal calf serum, penicillin (100 U/ml), streptomycin (100 μg/ml), L-glutamine (2 mM) at 37° C. in 5% CO2/95% air. Cells are passaged two or three times weekly at a ratio between 1:5 and 1:10. Lymphocytes were isolated from buffy coats kindly provided by the Blood Bank of the University Hospital of Ferrara. Blood donated by healthy volunteers, after informed consent for research was obtained. Lymphocytes were isolated by density gradient centrifugation (Ficoll/Histopaque 1.077 g/ml). […]
A375 and NCTC2544 adherent cells were trypsinized, mixed with floating cells, washed with PBS and permeabilised in 70% (vol/vol) ethanol/PBS solution at 4° C. for at least 24 hours. […] Cells were analysed by FACScan (Becton-Dickinson) and the content of DNA was evaluated by the Cell-LISYS program (Becton-Dickinson). Cell distribution among cell cycle phases and apoptotic cells was evaluated as previously described (Secchiero et al., 2001). […]

[7] = A-375, read-out: IC50 of anti-neoplastic agent used jointly with A3 antagonist, A375 cells, with IL-10 0.5 μg/ml
[8] = A-375, read-out: IC50 of anti-neoplastic agent used jointly with A3 antagonist, A375 cells, with IL-10 5 μg/ml
[9] = A-375, read-out: IC50 of anti-neoplastic agent used jointly with A3 antagonist, A375 cells, with IL-10 […]
[10] = A-375, read-out: IC50 of anti-neoplastic agent used jointly with A3 antagonist, A375 cells, with IL-11 0.5 μg/ml
[11] = A-375, read-out: IC50 of anti-neoplastic agent used jointly with A3 antagonist, A375 cells, with IL-11 5 μg/ml
[12] = A-375, read-out: IC50 of anti-neoplastic agent used jointly with A3 antagonist, A375 cells, with MRE3008F20 1 μg/ml
[13] = A-375, read-out: IC50 of anti-neoplastic agent used jointly with A3 antagonist, A375 cells, with MRE3008F20 3 μg/ml
[14] = A-375, read-out: IC50 of anti-neoplastic agent used jointly with A3 antagonist, A375 cells, with MRE3008F20 10 μg/ml
[15] = paclitaxel with MRE3008F20 10 μM
[16] = vindesine with MRE3008F20 10 μM

rA2A adenosine receptor, sequence (P30543 whole entry): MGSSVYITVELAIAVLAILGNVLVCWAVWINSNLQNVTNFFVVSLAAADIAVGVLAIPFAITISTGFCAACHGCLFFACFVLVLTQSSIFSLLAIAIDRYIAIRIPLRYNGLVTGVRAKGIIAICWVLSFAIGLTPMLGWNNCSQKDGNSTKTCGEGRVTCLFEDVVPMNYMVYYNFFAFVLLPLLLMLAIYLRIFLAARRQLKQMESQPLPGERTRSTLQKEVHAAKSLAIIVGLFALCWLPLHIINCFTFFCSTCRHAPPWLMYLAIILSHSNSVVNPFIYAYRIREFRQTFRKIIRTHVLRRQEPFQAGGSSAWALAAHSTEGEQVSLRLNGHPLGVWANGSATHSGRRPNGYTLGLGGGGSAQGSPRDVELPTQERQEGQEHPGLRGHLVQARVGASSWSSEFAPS

SMILES | IC50 ([1]; with IL-10 0.5 μg/ml) [ng/mL] | IC50 ([1]; with IL-11 0.5 μg/ml) [ng/mL] | IC50 ([1]; with MRE3008F20 1 μg/ml) [ng/mL] | IC50 ([2]; with IL-10 0.5 μg/ml) [ng/mL] | IC50 ([2]; with IL-11 0.5 μg/ml) [ng/mL] | IC50 ([2]; with MRE3008F20 1 μg/ml) [ng/mL] | IC50 ([3]; with IL-10 0.5 μg/ml) [ng/mL] | IC50 ([3]; with IL-11 0.5 μg/ml) [ng/mL] | IC50 ([3]; with MRE3008F20 1 μg/ml) [ng/mL] | IC50 [4] [ng/mL] | IC50 [6, 7] [ng/mL] | IC50 [6, 8] [ng/mL] | IC50 [6, 9] [ng/mL] | IC50 [6, 10] [ng/mL] | IC50 [6, 11] [ng/mL] | IC50 [6, 12] [ng/mL] | IC50 [6, 13] [ng/mL] | IC50 [6, 14] [ng/mL] | EC50 (A375 cells) | other results
CN(C)c1ccc(NC(=O)Nc2nc3nn(C)cc3c3nc(-c4ccco4)nn23)cc1 [IL-11, N-1-(4-dimethylamino-phenyl)-N′-5-[8-methyl-2-(2-furyl)-pyrazolo[4,3-e]1,2,4-triazolo[1,5-c]pyrimidine]-urea] | – | – | – | – | – | – | – | – | – | – | – | – | – | – | – | – | – | – | – | Ki (rA1 adenosine receptor): > 10000 nM; Ki (rA2A adenosine receptor): > 10000 nM
CC(=O)O[C@@]12CO[C@@H]1C[C@H](O)[C@@]1(C)C(=O)[C@H](O)C3=C(C)[C@@H](OC(=O)[C@H](O)[C@@H](NC(=O)OC(C)(C)C)c4ccccc4)C[C@@](O)([C@@H](OC(=O)c4ccccc4)[C@H]21)C3(C)C [docetaxel] | 0.0033 (≈ 0.00408 nM) | 0.0028 (≈ 0.00347 nM) | 0.0012 (≈ 0.00149 nM) | 0.47 (≈ 0.582 nM) | 0.5 (≈ 0.619 nM) | 0.38 (≈ 0.47 nM) | 0.17 (≈ 0.21 nM) | 0.25 (≈ 0.309 nM) | 0.13 (≈ 0.161 nM) | 0.005 (≈ 0.00619 nM) | 0.0025 (≈ 0.00309 nM) | 0.0072 (≈ 0.00891 nM) | 0.0023 (≈ 0.00285 nM) | 0.0087 (≈ 0.0108 nM) | 0.0071 (≈ 0.00879 nM) | 0.0006 (≈ 0.000743 nM) | 0.0055 (≈ 0.00681 nM) | 0.0072 (≈ 0.00891 nM) | – | acute hypersensitivity reaction, patients [5]: 13%; severe hypersensitivity reaction, patients [5]: 1.2%
CC(=O)O[C@H]1C(=O)[C@@]2(C)[C@H]([C@H](OC(=O)c3ccccc3)[C@]3(O)C[C@H](OC(=O)[C@H](O)[C@@H](NC(=O)c4ccccc4)c4ccccc4)C(C)=C1C3(C)C)[C@]1(OC(C)=O)CO[C@@H]1C[C@@H]2O [paclitaxel] | 1 (≈ 1.17 nM) | 0.99 (≈ 1.16 nM) | 0.85 (≈ 0.995 nM) | 1.7 (≈ 1.99 nM) | 1.6 (≈ 1.87 nM) | 1.5 (≈ 1.76 nM) | 1.2 (≈ 1.41 nM) | 0.78 (≈ 0.913 nM) | 0.8 (≈ 0.937 nM) | 0.67 (≈ 0.785 nM) | 1.2 (≈ 1.41 nM) | 0.5 (≈ 0.586 nM) | 0.61 (≈ 0.714 nM) | 1.4 (≈ 1.64 nM) | 0.4 (≈ 0.468 nM) | 0.59 (≈ 0.691 nM) | 0.66 (≈ 0.773 nM) | 0.54 (≈ 0.632 nM) | 8.6 ± 0.81 ng/mL | percentage of apoptotic cells, maximum value (A375 cells; A375, paclitaxel at 5 ng/ml, range on different experiments): 35 to 53%; ECMAX, concentration exerting the maximal apoptosis (sub-G1) (A375 cells; A375, paclitaxel with MRE3008F20 10 μM): 3.04 ± 0.32 ng/mL; ECMAX, concentration exerting the maximal apoptosis (sub-G1) (A375 cells; A375, paclitaxel, DMSO (no antagonist)): 6.00 ± 0.63 ng/mL; EC50, G2/M accumulation (A375 cells; A375, paclitaxel, DMSO (no antagonist), 24 hours): 16.60 ± 2.00 ng/mL (≈ 19.4 nM); EC50 (HeL023 cells; [15]): 4.1 ± 0.4 ng/mL; ECMAX (sub-G1 accumulation) (HeL023 cells; [15]): 3.19 ± 0.30 ng/mL; EC50 (Jurkat cells; [15]): 2.52 ± 0.3 ng/mL; ECMAX (sub-G1 accumulation) (Jurkat cells; [15]): 2.29 ± 0.31 ng/mL; EC50 (NCTC2544 cells; [15]): 2.41 ± 0.3 ng/mL; ECMAX (sub-G1 accumulation) (NCTC2544 cells; [15]): 2.55 ± 0.24 ng/mL; IC50 ([6]; A-375, read-out: IC50 of paclitaxel plus MRE3008F20, IL-10, and IL-11, A375, with 10 μg/ml of MRE3008F20 or 5 μg/ml of IL-10 or IL-11): 0.4 to 0.54 ng/mL
CC[C@]1(O)C[C@@H]2CN(CCc3c([nH]c4ccccc34)[C@@](C(=O)OC)(c3cc4c(cc3OC)N(C)[C@H]3[C@@](O)(C(N)=O)[C@H](O)[C@]5(CC)C=CCN6CC[C@]43[C@@H]65)C2)C1 [vindesine] | – | – | – | – | – | – | – | – | – | – | – | – | – | – | – | – | – | – | 0.48 ± 0.05 nM | ECMAX, concentration exerting the maximal apoptosis (sub-G1) (A375 cells; A375, vindesine with MRE3008F20 10 μM): 1.66 ± 0.20 nM; EC50 (HeL023 cells; [16]): 0.71 ± 0.08 nM; ECMAX (sub-G1 accumulation) (HeL023 cells; [16]): 1.05 ± 0.09 nM; EC50 (Jurkat cells; [16]): 0.37 ± 0.04 nM; EC50 (NCTC2544 cells; [16]): 0.51 ± 0.06 nM; ECMAX (sub-G1 accumulation) (NCTC2544 cells; [16]): 1.34 ± 0.15 nM; ECMAX (sub-G1 accumulation) (NCTC2544 cells; vindesine, DMSO (no antagonist)): 2.50 ± 0.27 nM; EC50 (PBMC blasts): 0.86 ± 0.09 nM
